{"source": "patent US5998416A", "about": "“Piperazine, piperidine and tetrahydropyridine derivatives as 5-HT receptor agonists” (Merck Sharp & Dohme Ltd., priority 1996, dated 1999)", "origin": "cited, not measured here", "conditions": "therapeutic doses", "data": [{"compound": "CNS(=O)(=O)Cc1ccc2[nH]cc(CCN(C)C)c2c1", "note": "[sumatriptan]", "values": [{"measurement": "adverse cardiovascular events in humans", "value": "certain adverse cardiovascular events"}]}]}
